From US20040029910A1, “Protoberberine derivatives which inhibit activity of the mitogen-activated protein kinase” (priority 2000, published 2004)

What was measured:
[1] = system: knock-out mutant of win1 (ED1388); test: Growth (cell number) of win1 knock-out mutant; assay type: cell-based, Schizosaccharomyces pombe; details: Table 7, win1 knock-out
Protocol: (§1) To investigate the effect of protoberberine derivatives on the growth of cells, the cells of each strain were cultured in rich medium YE^AU to exponential phase(5×10^7 cells/mL). These cells were transferred to YE^AU medium and cultured for 12 hours. Then cell number was measured every 3 hours.
(§2) The knock-out mutant of win1 and wis4 was cultured and treated with 13-(4-t-butylbenzyl)berberine chloride, 13-(4-(t-butyldimethylsilyloxy)benzyl)berberine chloride or 2,3,9,10-tetrapropoxyprotoberberine iodide of the compounds 13-benzylberberine iodide, 13-(4-chloro benzyl)berberine iodide, 13-(3-bromobenzyl)berberine iodide, 13-(2,3-dichlorobenzyl)berberine chloride, 13-(2-chloro-6-fluorobenzyl)berberine chloride, 13-(4-fluoro-2-trifluoromethylbenzyl)berberine chloride, 13-(2,3,4,5,6-pentafluorobenzyl)berberine chloride, 13-(2,3,5,6-tetra fluoro-4-trifluoromethylbenzyl)berberine chloride, 13-(4-methylbenzyl)berberine chloride, 13-(2,4-dimethylbenzyl) berberine chloride, 13-(4-methyl-3-nitrobenzyl)berberine chloride, 13-(3-trifluoromethylbenzyl)berberine chloride, 13-(4-methoxybenzyl)berberine chloride, 13-(4-trifluoro methoxybenzyl)berberine chloride, 13-(4-methoxycarbonyl benzyl)berberine chloride, 13-(4-t-butylbenzyl)berberine chloride, 13-(4-1-propylbenzyl) berberine chloride, 13-(4-(t-butyldimethylsilyloxy)benzyl) berberine chloride, 13-(4-t-butylbenzyl)palmatine iodide, 13-(4-(t-butyldimethyl silyloxy)benzyl)palmatine chloride and 2,3,9,10-tetra propoxyprotoberberine iodide.

[2] = system: knock-out mutant of byr2 in Ras-Byr2 pathway (SPSU); test: Growth (cell number) of byr2 knock-out mutant; assay type: cell-based, Schizosaccharomyces pombe
Protocol: as §1

[3] = system: knock-out mutant of wis1 (JM544); test: Growth (cell number) of wis1 knock-out mutant; assay type: cell-based, Schizosaccharomyces pombe; details: for inhibition of the activity of Wis1 kinase, concluded from effects on knock-out mutants: conclusion from growth of knock-out mutants; for inhibition of the knock-out mutant of wis1 (in words): table 5
Protocol: To investigate the effect of protoberberine derivatives on the growth of cells, the cells of each strain were cultured in rich medium YE^AU to exponential phase(5×10^7 cells/mL). […]

[4] = system: KGY246 cells, wild type Saccharomyces pombe; test: Minimum inhibitory concentration (MIC) on Schizosaccharomyces pombe; assay type: cell-based; details: YE^AU medium; minimal concentration at which cell number stayed constant; 10% ethanol as solvent
Protocol: Measurement of Minimum Inhibitory Concentration(MIC) of Protoberberine Derivatives on Schizosaccharomyces pombe
KGY246 cells, wild type Saccharomyces pombe, were cultured in rich media YE^AU (yeast extract, peptone, malt extract, dextrose, agar: pH 6.2)containing 0.75 mg/L adenine and uracil to exponential phase. To determine minimum inhibitory concentration of each protoproberberine derivative, cells in exponential phase were transferred to YE^AU medium containing variable concentrations of protoberberine derivatives and cell number was measured every 3 hour. Thereafter, the minimal concentration on which cell number was maintained constantly was determined as minimum inhibitory concentration. The minimum inhibitory concentrations of protoberberine derivatives 13-(4-t-butylbenzyl)berberine chloride, 13-(4-(t-butyldimetylsilyloxy)benzyl)berberine chloride and 2,3,9,10-tetrapropoxyprotoberberine iodide of the present invention were 20 ug/mL, 7 ug/mL and 20 ug/mL respectively. To minimize inhibition by solvent itself, 10% ethanol was used as a solvent of protoberberine derivatives. The processes of cell culture and measurement of cell number described above were repeated using 13-benzylberberine iodide, 13-(4-chlorobenzyl)berberine iodide, 13-(3-bromobenzyl)berberine iodide, 13-(2,3-dichlorobenzyl) berberine chloride, 13-(2-chloro-6-fluorobenzyl)berberine chloride, 13-(4-fluoro-2-trifluoromethylbenzyl)berberine chloride, 13-(2,3,4,5,6-pentafluorobenzyl)berberine chloride, 13-(2,3,5,6-tetrafluoro-4-trifluoromethylbenzyl) berberine chloride, 13-(4-methylbenzyl)berberine chloride, 13-(2,4-dimethylbenzyl)berberine chloride, 13-(4-methyl-3-nitrobenzyl)berberine chloride, 13-(3-trifluoromethyl benzyl)berberine chloride, 13-(4-methoxybenzyl)berberine chloride, 13-(4-trifluoromethoxybenzyl)berberine chloride, 13-(4-methoxycarbonylbenzyl)berberine chloride, 13-(4-i-propylbenzyl)berberine chloride. These compounds also had the minimum concentration of inhibition at the concentration of 18-22 ug/mL.

[5] = system: knock-out mutant of wis4 (ED1292); test: Growth (cell number) of wis4 knock-out mutant; assay type: cell-based, Schizosaccharomyces pombe; details: Table 8, wis4 knock-out
Protocol: as §1, §2

[6] = system: knock-out mutant of spc1 (KS1366); test: Growth (cell number) of spc1 knock-out mutant; assay type: cell-based, Schizosaccharomyces pombe; details: for inhibition of the knock-out mutant of spc1 (in words): table 6
Protocol: To investigate the effect of protoberberine derivatives on the growth of cells, the cells of each strain were cultured in rich medium YE^AU to exponential phase(5×10^7 cells/mL). […] Then cell number was measured every 3 hours.

[7] = system: knock-out mutant of spm1 in Mhk1-Spm1 pathway (TZs69); test: Growth (cell number) of spm1 knock-out mutant; assay type: cell-based, Schizosaccharomyces pombe
Protocol: as §1

[8] = Table 3, byr2 knock-out, time 12, miconazole 3 ug/mL
[9] = Table 3, byr2 knock-out, time 15, miconazole 3 ug/mL
[10] = Table 3, byr2 knock-out, time 18, miconazole 3 ug/mL
[11] = Table 3, byr2 knock-out, time 21, miconazole 3 ug/mL
[12] = Table 3, byr2 knock-out, time 24, miconazole 3 ug/mL
[13] = Table 5, wis1 knock-out, time 12, miconazole 3 ug/mL
[14] = Table 5, wis1 knock-out, time 15, miconazole 3 ug/mL
[15] = Table 5, wis1 knock-out, time 18, miconazole 3 ug/mL
[16] = Table 5, wis1 knock-out, time 21, miconazole 3 ug/mL
[17] = Table 5, wis1 knock-out, time 24, miconazole 3 ug/mL
[18] = Table 6, spc1 knock-out, time 15, miconazole 3 ug/mL
[19] = Table 6, spc1 knock-out, time 18, miconazole 3 ug/mL
[20] = Table 6, spc1 knock-out, time 21, miconazole 3 ug/mL
[21] = Table 6, spc1 knock-out, time 24, miconazole 3 ug/mL
[22] = Table 4, spm1 knock-out, time 12, miconazole 3 ug/mL
[23] = Table 4, spm1 knock-out, time 15, miconazole 3 ug/mL
[24] = Table 4, spm1 knock-out, time 18, miconazole 3 ug/mL
[25] = Table 4, spm1 knock-out, time 21, miconazole 3 ug/mL
[26] = Table 4, spm1 knock-out, time 24, miconazole 3 ug/mL

| Structure (SMILES) | cell number ([1]; time 13) | cell number ([1]; time 16) | cell number ([1]; time 19) | cell number ([1]; time 22) | cell number ([1]; time 25) | cell number [2, 8] | cell number [2, 9] | cell number [2, 10] | cell number [2, 11] | cell number [2, 12] | cell number [3, 13] | inhibition of the activity of Wis1 kinase, concluded from effects on knock-out mutants [3] | inhibition of the knock-out mutant of wis1 (in words) [3] | minimum inhibitory concentration [4] [µg/mL] | cell number ([5]; time 13) | cell number ([5]; time 16) | cell number ([5]; time 19) | cell number ([5]; time 22) | cell number ([5]; time 25) | inhibition of the knock-out mutant of spc1 (in words) [6] | other results |
| --- | --- | --- | --- | --- | --- | --- | --- | --- | --- | --- | --- | --- | --- | --- | --- | --- | --- | --- | --- | --- | --- |
| CCCOc1cc2c(cc1OCCC)-c1cc3ccc(OCCC)c(OCCC)c3c[n+]1CC2.[I-] [2,3,9,10-tetrapropoxyprotoberberine iodide] | 102 | 210 | 423 | 750 | 1575 | 220 | 207 | 185 | 167 | 155 | 164 | inhibit | not inhibited | 20 | 96 | 113 | 265 | 645 | 1250 | completely inhibited | cell number [3, 14]: 325; cell number [3, 15]: 502; cell number [3, 16]: 1041; cell number [3, 17]: 1574; cell number ([6]; Table 6, spc1 knock-out, time 12, miconazole 3 ug/mL): 201; cell number [6, 18]: 382; cell number [6, 19]: 676; cell number [6, 20]: 1232; cell number [6, 21]: 1634; inhibition of the activity of Spc1 kinase, concluded from effects on knock-out mutants ([6]; conclusion from growth of knock-out mutants): inhibit; cell number [7, 22]: 117; cell number [7, 23]: 4; cell number [7, 24]: 7; cell number [7, 25]: 165; cell number [7, 26]: 228 |
| COc1ccc2c(Cc3ccc(O[Si](C)(C)C(C)(C)C)cc3)c3[n+](cc2c1OC)CCc1cc2c(cc1-3)OCO2.[Cl-] [13-(4-(t-butyldimethylsilyloxy)benzyl)berberine chloride] | 31 | 16 | 16 | 26 | 33 | – | – | – | – | – | – | inhibit | not inhibited | 7 | 37 | 52 | 25 | 36 | 23 | not inhibited at all | cell number ([2]; Table 2, byr2 knock-out, time 14): 34; cell number ([2]; Table 2, byr2 knock-out, time 17): 72; cell number ([2]; Table 2, byr2 knock-out, time 20): 156; cell number ([2]; Table 2, byr2 knock-out, time 23): 292; cell number ([3]; Table 2, wis1 knock-out, time 14): 257; cell number ([3]; Table 2, wis1 knock-out, time 17): 665; cell number ([3]; Table 2, wis1 knock-out, time 20): 1355; cell number ([3]; Table 2, wis1 knock-out, time 23): 3100; cell number ([6]; Table 2, spc1 knock-out, time 14): 57; cell number ([6]; Table 2, spc1 knock-out, time 17): 90; cell number ([6]; Table 2, spc1 knock-out, time 20): 173; cell number ([6]; Table 2, spc1 knock-out, time 23): 210; cell number ([7]; Table 2, Spm1 knock-out, time 14): 55; cell number ([7]; Table 2, Spm1 knock-out, time 17): 94; cell number ([7]; Table 2, Spm1 knock-out, time 20): 266; cell number ([7]; Table 2, Spm1 knock-out, time 23): 450 |
| COc1ccc2c(Cc3ccc(C(C)(C)C)cc3)c3[n+](cc2c1OC)CCc1cc2c(cc1-3)OCO2.[Cl-] [13-(4-t-butylbenzyl)berberine chloride] | 28 | 26 | 17 | 37 | 13 | 156 | 150 | 147 | 136 | 128 | 154 | inhibit | not inhibited | 20 | 24 | 45 | 36 | 23 | 19 | partially inhibited | cell number [3, 14]: 319; cell number [3, 15]: 538; cell number [3, 16]: 1265; cell number [3, 17]: 1788; cell number [6, 18]: 299; cell number [6, 19]: 488; cell number [6, 20]: 874; cell number [6, 21]: 1083; cell number [7, 22]: 89; cell number [7, 23]: 113; cell number [7, 24]: 131; cell number [7, 25]: 118; cell number [7, 26]: 125 |
